In patent US12144864B2, “Tubulysins and protein-tubulysin conjugates” (Regeneron Pharmaceuticals, Inc., priority 2018, dated 2024):
Like-named read-outs stand apart in the source and are kept apart here.

Legend:
C4-2 cells = assay: Cell-based killing assay of payloads (CellTiter-Glo), C4-2 cells; design: species or system human; conditions: 5-day incubation; for IC50: Homo sapiens, C4-2, 120 h, average ± SD where replicates; for C4-2 % Kill: at maximum concentration tested (100 − % viable cells)
Procedure, shortened: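 Cells plated at 4000/well in line-specific complete medium, grown overnight, then exposed to 1:3 serial dilutions of payload (100 nM to […]) for 5 days. ATP-based CellTiter-Glo luminescence read; IC50 from four-parameter logistic 10-point fit, and % kill at top concentration as 100 − % viable.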

T47D cells = assay: Cell-based killing assay of payloads (CellTiter-Glo), T47D cells; design: species or system human; conditions: 5-day incubation; for IC50: Homo sapiens, T47D, 120 h; for T47D % Kill: at maximum concentration tested
Method: (§1) To test the ability of the disclosed tubulysin payloads to kill human cell lines, an in vitro cytotoxicity assay was performed. In vitro cytotoxicity of the disclosed payloads, as well as reference compounds, were evaluated using the CellTiter-Glo Assay Kit (Promega, Cat #G7573), in which the quantity of ATP present is used to determine the number of viable cells in culture. For the assay, C4-2, HEK293, or T47D cells were seeded at 4000 cells/well on Nunclon white 96-well plates in complete growth medium (DME high glucose:Ham's F12 at 4:1, 10% FBS, 100 units/ml Penicillin, 100 ug/ml streptomycin, 53 ug/ml glutatmine, 10 ug/ml insulin, 220 ng/ml biotin, 12.5 pg/ml T3, 12.5 ug/ml Adenine, 4 ug/ml transferrin for C42 cells; DME high glucose, 10% FBS, 100 units/ml Penicillin, 100 ug/ml streptomycin, 53 ug/ml glutatmine for HEK293; RPMI, 10% FBS, 100 units/ml Penicillin, 100 ug/ml streptomycin, 53 ug/ml glutatmine, 10 ug/ml insulin, 10 mM HEPEs, 200 nM Sodium Pyruvate for T47D cells) and grown overnight at 37° C. in 5% CO2. For cell viability curves, 1:3 serially diluted payloads were added to the cells at final concentrations ranging from 100 nM to […], including a no treatment control group, and were then incubated for 5 days. After the 5-day incubation, cells were incubated at room temperature with 100 μL of CellTiter-Glo reagents for 10 minutes. Relative luminescence units (RLU) were determined on a Victor plate reader (PerkinElmer). The IC50 values were determined from a four-parameter logistic equation over a 10-point response curve (GraphPad Prism). All IC50 values are expressed in molar (M) concentration. The percent cell killing (% kill) at the maximum concentration tested was estimated from the following formula (100−% viable cells). Averages±standard deviation (SD) are included where replicate experiments were performed.

HEK293 cells = assay: Cell-based killing assay of payloads (CellTiter-Glo), HEK293 cells; design: species or system human; conditions: 5-day incubation; for IC50: Homo sapiens, HEK293, 120 h; for HEK293 % Kill: at maximum concentration tested
Method: as §1

HCT15 cells = assay: cells; assay type: cell-based, human; conditions: HCT15 cells; for HCT-15 + verapamil % Kill / HCT-15 % Kill: maximum % cell killing
Procedure, shortened: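 HCT15 colorectal carcinoma cells, 1000 per well in RPMI/10% FBS, with or without 5 ug/mL verapamil, exposed to 1:3 serially diluted payloads for 5 days at 37 °C. Viability measured by CellTiter-Glo ATP luminescence; IC50 from four-parameter logistic fit of a 10-point curve, % kill at top concentration.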

HL60/MX2 cells = assay: Cytotoxicity in panel of MDR cell lines, HL60/MX2 (72 h and 144 h); assay type: cell-based, human; conditions: for IC50: Homo sapiens
Procedure, shortened: (§2)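 Four-parameter logistic fitting of 10-point CellTiter-Glo curves gives the IC50, expressed molar. Cells, including resistant H69AR, MES-SA/MX2 and HL60/MX2 plus HCT-15, are plated at 1000/well and exposed to payloads for 72 h and 144 h.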

MES-SA/MX2 cells = assay: Cytotoxicity in panel of MDR cell lines, MES-SA/MX2 (72 h and 144 h); assay type: cell-based, human; conditions: for IC50: Homo sapiens
Procedure, shortened: as §2

HCT-15 cells = assay: Cytotoxicity in panel of MDR cell lines, HCT-15 (72 h and 144 h); assay type: cell-based, human; conditions: for IC50: Homo sapiens
Procedure, shortened: as §2

H69AR cells = assay: Cytotoxicity in panel of MDR cell lines, H69AR (72 h and 144 h); assay type: cell-based, human; conditions: for IC50: Homo sapiens
Procedure, shortened: as §2

[1] = with 5 ug/mL Verapamil, read-out: HCT-15 + verapamil IC50
[2] = Homo sapiens, HCT-15, without Verapamil, read-out: HCT-15 IC50
[3] = 72 h incubation, read-out: HL60/MX2 IC50 72 h
[4] = 144 h incubation, read-out: HL60/MX2 IC50 144 h
[5] = 72 h incubation, read-out: MES-SA/MX2 IC50 72 h
[6] = 144 h incubation, read-out: MES-SA/MX2 IC50 144 h
[7] = 72 h incubation, read-out: HCT-15 IC50 72 h
[8] = 144 h incubation, read-out: HCT-15 IC50 144 h
[9] = 72 h incubation, read-out: H69AR IC50 72 h
[10] = 144 h incubation, read-out: H69AR IC50 144 h

Row | Compound | IC50 (C4-2 cells) [nM] | C4-2 % Kill (C4-2 cells) [%] | IC50 (T47D cells) [nM] | T47D % Kill (T47D cells) [%] | IC50 (HEK293 cells) [nM] | HEK293 % Kill (HEK293 cells) [%] | HCT-15 + verapamil % Kill (HCT15 cells; with 5 ug/mL Verapamil) [%] | IC50 (HCT15 cells; [1]) [nM] | HCT-15 % Kill (HCT15 cells; without Verapamil) [%] | IC50 (HCT15 cells; [2]) [nM] | HL60/MX2 % Kill 72 h (HL60/MX2 cells; 72 h incubation) [%] | HL60/MX2 % Kill 144 h (HL60/MX2 cells; 144 h incubation) [%] | IC50 (HL60/MX2 cells; [3]) [nM] | IC50 (HL60/MX2 cells; [4]) [nM] | MES-SA/MX2 % Kill 72 h (MES-SA/MX2 cells; 72 h incubation) [%] | MES-SA/MX2 % Kill 144 h (MES-SA/MX2 cells; 144 h incubation) [%] | IC50 (MES-SA/MX2 cells; [5]) [nM] | IC50 (MES-SA/MX2 cells; [6]) [nM] | HCT-15 % Kill 72 h (HCT-15 cells; 72 h incubation) [%] | HCT-15 % Kill 144 h (HCT-15 cells; 144 h incubation) [%] | further results
1 | C#CCCCCN(C(=O)[C@@H](NC(=O)[C@H]1CCCCN1C)[C@@H](C)CC)[C@H](C[C@@H](OC(C)=O)c1nc(C(=O)N[C@@H](Cc2ccc(F)cc2)CC(C)(C)C(=O)O)cs1)C(C)C [IVc, (4S)-4-({2-[(1R,3R)-1-(Acetyloxy)-3-[(2S,3S)—N-(hex-5-yn-1-yl)-3-methyl-2-{[(2R)-1-methylpiperidin-2-yl]formamido}pentanamido]-4-methylpentyl]-1,3-thiazol-4-yl}formamido)-5-(4-fluorophenyl)-2,2-dimethylpentanoic acid] | 0.0924 | 92.2 | 0.205 | 81.4 | 0.307 | 84.8 | 98 | 0.113 | 99.2 | 0.302 | 97.7 | 99.9 | < 0.015 | < 0.015 | 98.2 | 99.9 | 0.374 | 0.604 | 97.3 | 99.8 | IC50 (HCT-15 cells; [7]): 0.125 nM; IC50 (HCT-15 cells; [8]): 0.165 nM; H69AR % Kill 72 h (H69AR cells; 72 h incubation): 96.6%; H69AR % Kill 144 h (H69AR cells; 144 h incubation): 99.3%; IC50 (H69AR cells; [9]): 0.36 nM; IC50 (H69AR cells; [10]): 0.725 nM
2 | C#CCCCCN(C(=O)[C@@H](NC(=O)[C@H]1CCCCN1C)[C@@H](C)CC)[C@H](C[C@@H](OC(C)=O)c1nc(C(=O)N[C@@H](Cc2ccc(F)cc2)C[C@H](C)C(=O)O)cs1)C(C)C [IVe, (2S,4R)-4-({2-[(1R,3R)-1-(Acetyloxy)-3-[(2S,3S)—N-(hex-5-yn-1-yl)-3-methyl-2-{[(2R)-1-methylpiperidin-2-yl]formamido}pentanamido]-4-methylpentyl]-1,3-thiazol-4-yl}formamido)-5-(4-fluorophenyl)-2-methylpentanoic acid] | 0.0742 | 91.8 | 0.155 | 67.2 | 0.281 | 86.7 | 97.6 | 0.1 | 95.8 | 0.295 | 97.3 | 99.9 | < 0.015 | < 0.015 | 99.6 | 99.9 | 0.786 | 2.81 | 98.1 | 99.6 | IC50 (HCT-15 cells; [7]): 0.133 nM; IC50 (HCT-15 cells; [8]): 0.23 nM; H69AR % Kill 72 h (H69AR cells; 72 h incubation): 96.5%; H69AR % Kill 144 h (H69AR cells; 144 h incubation): 99%; IC50 (H69AR cells; [9]): 0.585 nM; IC50 (H69AR cells; [10]): 1.26 nM
3 | C#CCCCCN(C(=O)[C@@H](NC(=O)[C@H]1CCCCN1C)[C@@H](C)CC)[C@H](C[C@@H](OC(C)=O)c1nc(C(=O)N[C@@H](Cc2ccc(O)cc2)C[C@H](C)C(=O)O)cs1)C(C)C [IVf, (2S,4R)-4-({2-[(1R,3R)-1-(Acetyloxy)-3-[(2S,3S)—N-(hex-5-yn-1-yl)-3-methyl-2-{[(2R)-1-methylpiperidin-2-yl]formamido}pentanamido]-4-methylpentyl]-1,3-thiazol-4-yl}formamido)-5-(4-hydroxyphenyl)-2-methylpentanoic acid] | 0.229 | 93.8 | 0.782 | 67.1 | 1.64 | 86.0 | 97.7 | 0.686 | 96.4 | 0.554 | 97.2 | 100 | 0.222 | < 0.015 | 99.1 | 99.9 | 2.57 | 3.82 | 96.9 | 99.8 | IC50 (HCT-15 cells; [7]): 0.419 nM; IC50 (HCT-15 cells; [8]): 0.396 nM; H69AR % Kill 72 h (H69AR cells; 72 h incubation): 94.6%; H69AR % Kill 144 h (H69AR cells; 144 h incubation): 98.9%; IC50 (H69AR cells; [9]): 1.33 nM; IC50 (H69AR cells; [10]): 1.55 nM
4 | C#CCCCON(C(=O)[C@@H](NC(=O)[C@H]1CCCCN1C)[C@@H](C)CC)[C@H](C[C@@H](OC(C)=O)c1nc(C(=O)N[C@@H](Cc2ccc(F)cc2)CC(C)(C)C(=O)O)cs1)C(C)C [Vd, (4S)-4-({2-[(1R,3R)-1-(Acetyloxy)-4-methyl-3-[(2S,3S)-3-methyl-2-{[(2R)-1-methylpiperidin-2-yl]formamido}-N-(pent-4-yn-1-yloxy)pentanamido]pentyl]-1,3-thiazol-4-yl}formamido)-5-(4-fluorophenyl)-2,2-dimethylpentanoic acid] | 0.384 | 91.3 | 0.444 | 66 | 0.59 | 86.3 | 98.7 | 0.352 | 99.7 | 1.93 | – | – | – | – | – | – | – | – | – | – | –
5 | C#CCCCON(C(=O)[C@@H](NC(=O)[C@H]1CCCCN1C)[C@@H](C)CC)[C@H](C[C@@H](OC(C)=O)c1nc(C(=O)N[C@@H](Cc2ccc(F)cc2)C[C@H](C)C(=O)O)cs1)C(C)C [Vf, (2S,4R)-4-({2-[(1R,3R)-1-(Acetyloxy)-4-methyl-3-[(2S,3S)-3-methyl-2-{[(2R)-1-methylpiperidin-2-yl]formamido}-N-(pent-4-yn-1-yloxy)pentanamido]pentyl]-1,3-thiazol-4-yl}formamido)-5-(4-fluorophenyl)-2-methylpentanoic acid] | 0.9 | 90 | 0.396 | 68 | 0.666 | 83.8 | 98 | 0.375 | 96.5 | 3.36 | – | – | – | – | – | – | – | – | – | – | –
6 | CC[C@H](C)[C@H](NC(=O)[C@H]1CCCCN1C)C(=O)N(OCCCOCc1ccc(N)cc1)[C@H](C[C@@H](OC(C)=O)c1nc(C(=O)N[C@@H](Cc2ccc(O)cc2)C[C@H](C)C(=O)O)cs1)C(C)C [Vj, (2S,4R)-4-(2-((8R,10R)-1-(4-Aminophenyl)-8-isopropyl-7-((2S,3S)-3-methyl-2-((R)-1-methylpiperidine-2-carboxamido)pentanoyl)-12-oxo-2,6,11-trioxa-7-azatridecan-10-yl)thiazole-4-carboxamido)-5-(4-hydroxyphenyl)-2-methylpentanoic acid] | 53.1 | 68.5 ± 39.2 | > 100 | 14.6 | > 100 | 4.7 | 77.4 | 39.2 | −3.8 | > 100 | – | – | – | – | – | – | – | – | – | – | –
